The values that follow come from US20250154140A1 (Sunnybrook Research Institute, priority 2022, published 2025).

For the assay, the target named is BAX (Homo sapiens, UniProt Q07812). Nature of the assay: SMAC mCherry assay in permeabilized Bax-/- Bak-/- BMK cells with recombinant Bax and cBid. Details: made in house; host or cells: Escherichia coli BL21-AI. The format is cell-based, mouse. The conditions noted are these: 20 nM Bax, 0.5 nM cBid, 60-80 minutes; read-out: SMAC mCherry I.D IC50. As for the experimental part: Bax−/− Bak−/− double-knockout Baby Mouse Kidney (BMK) cells stably expressing a SMAC-(1-56)-mCherry fusion protein were cultured in DMEM complete (DMEM supplemented with 10% FBS and 1× Penicillin-Streptomycin) in 10 cm diameter tissue-culture treated dishes at 37° C. in a humidified incubator with 5% CO2 in air. Cells were washed with PBS, incubated with 1×Trypsin and resuspended in DMEM complete. Detached cells were seeded at 6000 cells per well in 50 uL DMEM complete into a 384 well Perkin-Elmer Phenoplate, incubated at room-temperature for 30 minutes followed by incubation overnight at 37° C. in a humidified incubator with 5% CO2 in air. Recombinant Bax and recombinant cBid were quickly thawed between fingers and 25 mM compound stocks in DMSO were thawed at room temperature. An 8 point titration curve of each compound was created in a 384-well source plate containing Trehalose-Hepes Buffer (THB, 135 mM trehalose, 50 mM KCl, 10 mM HEPES-KOH pH 7.4, 5 mM succinate, 20 uM EDTA, 20 uM EGTA, 0.1% BSA) supplemented with 1/1000 DRAQ5, 0.0025% digitonin, 20 nM Bax and 0.5 nM cBid. The source plate also contained control wells with THB supplemented with 1/1000 DRAQ5, 0.0025% digitonin plus 20 nM Bax (negative control) or 20 nM Bax and 0.5 nM cBid (positive control). Using the Vantage automated liquid handler, DMEM complete media was removed from the cells growing in the 384 well Phenoplate. The cells were washed 2× with 30 uL THB and then 25 uL from the 384 well source plate containing THB proteins and compounds was transferred to the cells growing in the 384 well plate. The cells were incubated for 60-80 minutes at 37 C in a humidified incubator with 5% CO2 in air and then imaged on the Opera Phenix Microscope. Two image channels were acquired: 1) DRAQ5 channel, to visualize nuclei and aid in cell segmentation and 2) SMAC-mCherry channel to visualize mitochondria that retain SMAC-mCherry. Data was processed using PerkinElmer Harmony software where the cells were segmented using the DRAQ5 channel and the mean intensity of SMAC-mCherry for each cell was calculated. The single-cell lobject level data was exported and then analyzed using R code. A per cell SMAC-mCherry intensity cutoff was calculated as 1.33 times the mean per cell SMAC-mCherry intensity of the THB+Bax control. Cells with a SMAC-mCherry intensity below or equal to the cutoff were scored as “released”. The percentage SMAC-mCherry release was calculated as the number of cells scored as “released” divided by the total amount of cells multiplied by 100. Dose-response curves were fit to a 4-parameter log-logistic model to determine the IC50 value for each compound.
Sequence of BAX (Q07812 whole entry, the tested form may be a part): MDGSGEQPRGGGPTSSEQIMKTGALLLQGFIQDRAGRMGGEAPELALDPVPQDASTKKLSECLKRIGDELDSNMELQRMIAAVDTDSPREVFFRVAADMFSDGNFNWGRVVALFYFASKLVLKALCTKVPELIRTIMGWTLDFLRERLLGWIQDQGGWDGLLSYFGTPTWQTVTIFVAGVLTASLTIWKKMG

Consider `COc1cc2ccnc(Nc3ccc(F)c(Cl)c3)c2cc1NC(=O)CCCCN1CCCCC1` [Compound 1-2, N-(1-((3-chloro-4-fluorophenyl)amino)-6-methoxyisoquinolin-7-yl)-5-(piperidin-1-yl)pentanamide], for which the IC50 was in the range of 0.1 to 10 µM.
`COc1cc2ccnc(Nc3ccc(F)c(Cl)c3)c2cc1NC(=O)CCN1CCCCC1` [Compound 1-3, N-(1-((3-chloro-4-fluorophenyl)amino)-6-methoxyisoquinolin-7-yl)-3-(piperidin-1-yl)propanamide]: the IC50 lay in the range of 11 to 50 µM.
Take `COc1cc2ccnc(Nc3ccc(F)c(Cl)c3)c2cc1NC(=O)CCCN1CCCC1` [Compound 1-4]: the IC50 fell in the range of 0.1 to 10 µM.
For `COc1cc2ccnc(Nc3ccc(F)c(Cl)c3)c2cc1NC(=O)CCCN1C[C@@H](C)O[C@@H](C)C1` [Compound 1-5, N-(1-((3-chloro-4-fluorophenyl)amino)-6-methoxyisoquinolin-7-yl)-4-((2S,6R)-2,6-dimethylmorpholino)butanamide] the value was 0.1 to 10 µM.
For `COc1cc2ccnc(Nc3ccc(F)c(Cl)c3)c2cc1NC(=O)CCCN1CCOCC1` [Compound 1-6, N-(1-((3-chloro-4-fluorophenyl)amino)-6-methoxyisoquinolin-7-yl)-4-morpholinobutanamide] the value was 11 to 50 µM; for `COc1cc2ccnc(Nc3ccc(F)c(Cl)c3)c2cc1NC(=O)CCCN1CCN(C)CC1` [Compound 1-7, N-(1-((3-chloro-4-fluorophenyl)amino)-6-methoxyisoquinolin-7-yl)-4-(4-methylpiperazin-1-yl)butanamide], 0.1 to 10 µM; for `COc1cc2ccnc(Nc3ccc(F)c(Cl)c3)c2cc1NC(=O)CCCN1CCC(F)(F)CC1` [Compound 1-8, N-(1-((3-chloro-4-fluorophenyl)amino)-6-methoxyisoquinolin-7-yl)-4-(4,4-difluoropiperidin-1-yl)butanamide], 0.1 to 10 µM.
Take `COc1cc2ccnc(Nc3cccc(F)c3)c2cc1NC(=O)CCCN1CCCCC1` [Compound 1-9, N-(1-((3-fluorophenyl)amino)-6-methoxyisoquinolin-7-yl)-4-(piperidin-1-yl)butanamide]: the IC50 fell in the range of 11 to 50 µM.
In the case of `COc1cccc(Nc2nccc3cc(OC)c(NC(=O)CCCN4CCCCC4)cc23)c1` [Compound 1-10, N-(6-methoxy-1-((3-methoxyphenyl)amino)isoquinolin-7-yl)-4-(piperidin-1-yl)butanamide], the concentration for half-maximal inhibition (IC50) is more than 100 µM.
With `COc1cc2ccnc(Nc3cccc(C)c3)c2cc1NC(=O)CCCN1CCCCC1` [Compound 1-11, N-(6-methoxy-1-(m-tolylamino)isoquinolin-7-yl)-4-(piperidin-1-yl)butanamide], the IC50 was 51 to 100 µM.
With `COc1cc2ccnc(Nc3ccc(F)cc3)c2cc1NC(=O)CCCN1CCCCC1` [Compound 1-12, N-(1-((4-fluorophenyl)amino)-6-methoxyisoquinolin-7-yl)-4-(piperidin-1-yl)butanamide], the IC50 was in the range of 51 to 100 µM.
`COc1cc2ccnc(Nc3cccc(Cl)c3)c2cc1NC(=O)CCCN1CCCCC1` [Compound 1-13, N-(1-((3-chlorophenyl)amino)-6-methoxyisoquinolin-7-yl)-4-(piperidin-1-yl)butanamide]: the IC50 is 11 to 50 µM.
On to `COc1cc2ccnc(Nc3ccc(C)cc3)c2cc1NC(=O)CCCN1CCCCC1` [Compound 1-14, N-(6-methoxy-1-(p-tolylamino)isoquinolin-7-yl)-4-(piperidin-1-yl)butanamide], for which the IC50 was 51 to 100 µM.
Turning to `COc1cc2ccnc(Nc3ccccc3)c2cc1NC(=O)CCCN1CCCCC1` [Compound 1-15, N-(6-methoxy-1-(phenylamino)isoquinoin-l7-yl)-4-(piperidin-1-yl)butanamide], the IC50 is 51 to 100 µM.
In the case of `COc1cc2ccnc(Nc3ccc(F)c(C(F)(F)F)c3)c2cc1NC(=O)CCCN1CCCCC1` [Compound 1-16, N-(1-((4-fluoro-3-(trifluoromethyl)phenyl)amino)-6-methoxyisoquinolin-7-yl)-4-(piperidin-1-yl)butanamide], the IC50 lay within 0.1 to 10 µM.
Regarding `Cc1cc2ccnc(Nc3ccc(F)c(Cl)c3)c2cc1NC(=O)CCCN1CCCCC1` [Compound 1-17, N-(1-((3-chloro-4-fluorophenyl)amino)-6-methylisoquinolin-7-yl)-4-(piperidin-1-yl)butanamide], the IC50 is 11 to 50 µM.
To `O=C(CCCN1CCCCC1)Nc1ccc2ccnc(Nc3ccc(F)c(Cl)c3)c2c1` [Compound 1-18, N-(1-((3-chloro-4-fluorophenyl)amino)isoquinolin-7-yl)-4-(piperidin-1-yl)butanamide] belongs 0.1 to 10 µM; to `COc1cc2ccnc(Nc3ccc(C)c(Cl)c3)c2cc1NC(=O)CCCN1CCCCC1` [Compound 1-21, N-(1-((3-chloro-4-methylphenyl)amino)-6-methoxyisoquinolin-7-yl)-4-(piperidin-1-yl)butanamide], 0.1 to 10 µM; to `COc1cc(Nc2nccc3cc(OC)c(NC(=O)CCCN4CCCCC4)cc23)ccc1F` [Compound 1-22, N-(1-((4-fluoro-3-methoxyphenyl)amino)-6-methoxyisoquinolin-7-yl)-4-(piperidin-1-yl)butanamide], 11 to 50 µM.
Take `COc1cc2ccnc(Nc3cc(Cl)c(F)c(Cl)c3)c2cc1NC(=O)CCCN1CCCCC1` [Compound 1-23, N-(1-((3,5-dichloro-4-fluorophenyl)amino)-6-methoxyisoquinolin-7-yl)-4-(piperidin-1-yl)butanamide]: the IC50 is 0.1 to 10 µM.
For `COc1ccc(Nc2nccc3cc(OC)c(NC(=O)CCCN4CCCCC4)cc23)cc1Cl` [Compound 1-24, N-(1-((3-chloro-4-methoxyphenyl)amino)-6-methoxyisoquinolin-7-yl)-4-(piperidin-1-yl)butanamide], the IC50 lay in the range of 11 to 50 µM.
Turning to `COc1cc2ccnc(Nc3cc(F)cc(Cl)c3)c2cc1NC(=O)CCCN1CCCCC1` [Compound 1-25, N-(1-((3-chloro-5-fluorophenyl)amino)-6-methoxyisoquinolin-7-yl)-4-(piperidin-1-yl)butanamide], the IC50 fell in the range of 0.1 to 10 µM.
To `O=C(CCCN1CCCCC1)Nc1cc2c(Nc3ccc(F)c(Cl)c3)nccc2cc1Cl` [Compound 1-26, N-(6-chloro-1-((3-chloro-4-fluorophenyl)amino)isoquinolin-7-yl)-4-(piperidin-1-yl)butanamide] belongs 0.1 to 10 µM; to `COc1cc2ccnc(Nc3ccc(Cl)c(Cl)c3)c2cc1NC(=O)CCCN1CCCCC1` [Compound 1-27, N-(1-((3,4-dichlorophenyl)amino)-6-methoxyisoquinolin-7-yl)-4-(piperidin-1-yl)butanamide], 0.1 to 10 µM; to `CCc1cc(Nc2nccc3cc(OC)c(NC(=O)CCCN4CCCCC4)cc23)ccc1F` [Compound 1-28, N-(1-((3-ethyl-4-fluorophenyl)amino)-6-methoxyisoquinolin-7-yl)-4-(piperidin-1-yl)butanamide], 11 to 50 µM.
For `COc1cc(NC(=O)CCCN2CCCCC2)cc2c(Nc3ccc(F)c(Cl)c3)nccc12` [Compound 1-29, N-(1-((3-chloro-4-fluorophenyl)amino)-5-methoxyisoquinolin-7-yl)-4-(piperidin-1-yl)butanamide] the value was 0.1 to 10 µM.
Regarding `COc1cc2ccnc(Nc3ccc(F)c(C(C)C)c3)c2cc1NC(=O)CCCN1CCCCC1` [Compound 1-30, N-(1-((4-fluoro-3-isopropylphenyl)amino)-6-methoxyisoquinolin-7-yl)-4-(piperidin-1-yl)butanamide], the IC50 was in the range of 11 to 50 µM.
On to `COc1cc2ccnc(Nc3ccc(F)c(Cl)c3)c2cc1N(C)C(=O)CCCN1CCCCC1` [Compound 1-31, N-(1-((3-chloro-4-fluorophenyl)amino)-6-methoxyisoquinolin-7-yl)-N-methyl-4-(piperidin-1-yl)butanamide], for which the IC50 is 11 to 50 µM.
Take `Cc1ccc(Nc2nccc3ccc(NC(=O)CCCN4CCCCC4)cc23)cc1Cl` [Compound 1-32, N-(1-((3-chloro-4-methylphenyl)amino)isoquinolin-7-yl)-4-(piperidin-1-yl)butanamide]: the IC50 is 0.1 to 10 µM.
Consider `O=C(CCCN1CCCCC1)Nc1ccc2ccnc(Nc3ccc(F)c(C(F)(F)F)c3)c2c1` [Compound 1-33, N-(1-((4-fluoro-3-(trifluoromethyl)phenyl)amino)isoquinolin-7-yl)-4-(piperidin-1-yl)butanamide], for which the half-inhibitory concentration (IC50) was 0.1 to 10 µM.
